Laboratory results published in ChEMBL document CHEMBL1131290, “Studies of structure-activity relationship of nitroxide free radicals and their precursors as modifiers against oxidative damage” (1998).

Legend:
V79 [1] = conditions: Cricetulus griseus
V79 [2] = conditions: Cricetulus griseus; remark: listed apart in the source
[3] = Mean surviving fraction of V79 cells following a 1-h exposure to H2O2.; format: functional, Cricetulus griseus
[4] = Mean surviving fraction of V79 cells following a 12-Gy dose of radiation.; format: functional, Cricetulus griseus
[5] = Compound was evaluated for mean surviving fraction of Chinese hamster V79 cells following a 1-h exposure to H2O2.; format: functional, Cricetulus griseus
[6] = Compound was evaluated for mean surviving fraction of Chinese hamster V79 cells following a 12-Gy dose of radiation.; format: functional, Cricetulus griseus

Row | Structure (SMILES) | H2O2 prot [3] | Radiation prot [4] | further results
1 | CC1(C)C=C(CN2Cc3ccccc3C2)C(C)(C)N1[O] | – | – | Radiation prot (V79 [1]): 3.9
2 | CC1(C)C=C(CNCc2ccccc2)C(C)(C)N1[O] | – | – | H2O2 prot (V79 [2]): 2; Radiation prot (V79 [1]): 5.2
3 | CC1(C)C=C(CNC2CCCCC2)C(C)(C)N1[O] | – | – | Radiation prot (V79 [1]): 4.4
4 | CC1(C)C=C(C=O)C(C)(C)N1[O] | – | – | H2O2 prot (V79 [2]): 1.3; Radiation prot (V79 [1]): 2.7
5 | CC1(C)CC(N)CC(C)(C)N1[O] [TEMPAMINE] | 2.8 | 18.5 | –
6 | CC1(C)C=C(C(=O)NCCO)C(C)(C)N1[O] | – | – | H2O2 prot (V79 [2]): 1.2
7 | CC1(C)CC(=O)C(C)(C)N1[O] | – | – | H2O2 prot (V79 [2]): 0.9; Radiation prot (V79 [1]): 10.2
8 | CC1(C)C=C(CO)C(C)(C)N1O | 3.1 | 0.92 | –
9 | CC1(C)C=C(C=O)CC(C)(C)N1[O] | – | – | H2O2 prot (V79 [2]): 0.8; Radiation prot (V79 [1]): 6.1
10 | CC1(C)C=C(C(=O)NCCCN2C(=O)c3ccccc3C2=O)C(C)(C)N1 | 1.1 | 1.9 | –
11 | CC1(C)C=C(C=O)C(C)(C)N1O | 2.7 | 0.13 | –
12 | CC[N+](CC)(CC)CC1=CC(C)(C)N([O])C1(C)C | – | – | Radiation prot (V79 [1]): 1.2
13 | CC1(C)C=C(C(=O)NCC(=O)O)C(C)(C)N1[O] | – | – | H2O2 prot (V79 [2]): 0.9; Radiation prot (V79 [1]): 0.98
14 | CC1(C)C=C(CN2CCCC2)C(C)(C)N1[O] | – | – | Radiation prot (V79 [1]): 21.4
15 | CC1(C)C=C(CN2CCCCC2)C(C)(C)N1[O] | – | – | Radiation prot (V79 [1]): 19.1
16 | CC1(C)CC(NC2CC(C)(C)N(O)C(C)(C)C2)CC(C)(C)N1O.Cl | 1.9 | 1.4 | –
17 | CC1(C)CC(O)CC(C)(C)N1 | 0.4 | 0.9 | –
18 | CC1(C)CC(=O)CC(C)(C)N1[O] | 1.1 | 7.1 | –
19 | CCOCC1=CC(C)(C)N(O)C1(C)C | 3.2 | – | –
20 | CC1(C)C=C(CO)C(C)(C)N1 | 0.9 | 1.5 | –
21 | CC1(C)CCC(C)(C)N1O | – | – | H2O2 prot [5]: 2.3; Radiation prot [6]: 0.7
22 | CC1(C)CCCC(C)(C)N1[O] | 3.5 | 4.2 | –
23 | CC1(C)C=C(CO)C(C)(C)N1[O] | – | – | H2O2 prot (V79 [2]): 1.8; Radiation prot (V79 [1]): 2.6

Row | Structure (SMILES) | H2O2 prot [3] | Radiation prot [4] | further results
24 | CCN(CC)CC1=CC(C)(C)N([O])C1(C)C | – | – | Radiation prot (V79 [1]): 17.2
25 | CC1(C)CC(=O)CC(C)(C)N1O | – | 0.68 | –
26 | CN(CC1=CC(C)(C)N(O)C1(C)C)C12CC3CC(CC(C3)C1)C2 | 2.6 | – | –
27 | CC1(C)CC(C(=O)NCCCN2C(=O)c3ccccc3C2=O)C(C)(C)N1O (stereo not given) | – | 1.26 | –
28 | CC1(C)C=C(CCSC(=N)N)C(C)(C)N1[O] | – | – | H2O2 prot (V79 [2]): 2.2; Radiation prot (V79 [1]): 7.5
29 | CC1(C)C=C(CNC23CC4CC(CC(C4)C2)C3)C(C)(C)N1 | 1.9 | 1.4 | –
30 | CC(=O)NC1CC(C)(C)N(O)C(C)(C)C1 | 1.8 | 0.85 | –
31 | CC1(C)CCC(C)(C)N1[O] | 0.9 | 4.6 | –
32 | CC(C)(C)NCC1=CC(C)(C)N([O])C1(C)C | – | – | H2O2 prot (V79 [2]): 2; Radiation prot (V79 [1]): 19.3
33 | CC1(C)CC(NS(C)(=O)=O)CC(C)(C)N1O | – | 0.77 | –
34 | CC1(C)CC(CN)C(C)(C)N1[O] (stereo not given) | 0.7 | 13.7 | –
35 | CC1(C)CC(=O)CC(C)(C)N1 | 0.5 | 1.1 | –
36 | CC1(C)CC(C(N)=O)C(C)(C)N1[O] (stereo not given) | 1.7 | 11.2 | –
37 | CC1(C)CC(N2C(=O)c3ccccc3C2=O)CC(C)(C)N1O | 1.5 | – | –
38 | CC(C)(C)NCC1=CC(C)(C)N(O)C1(C)C | 2.1 | 1.2 | –
39 | CCOCC1=CC(C)(C)N([O])C1(C)C | – | – | H2O2 prot (V79 [2]): 1.3
40 | CC1(C)C=C(CCNC(=N)N)C(C)(C)N1[O] | – | – | Radiation prot (V79 [1]): 1
41 | CCOC1CC(C)(C)N([O])C(C)(C)C1 | – | – | H2O2 prot (V79 [2]): 1.9
42 | CC1(C)C=C(C(=O)NCCCN)C(C)(C)N1O | 1 | – | –
43 | CC1(C)CC(CO)C(C)(C)N1[O] (stereo not given) | – | – | H2O2 prot (V79 [2]): 1.1; Radiation prot (V79 [1]): 4.7
44 | CC1(C)C=C(CNC23CC4CC(CC(C4)C2)C3)C(C)(C)N1[O] | – | – | H2O2 prot (V79 [2]): 3.3
45 | CC1(C)CC(N2C(=O)c3ccccc3C2=O)CC(C)(C)N1 | 0.8 | 1.7 | –
46 | CC1(C)CC(N)CC(C)(C)N1O | 1 | 1.1 | –

Row | Structure (SMILES) | H2O2 prot [3] | Radiation prot [4] | further results
47 | CC1(C)C=C(C(=O)NCCCO)C(C)(C)N1[O] | – | – | H2O2 prot (V79 [2]): 1.1
48 | CC1(C)C=C(CN2C(=O)c3ccccc3C2=O)C(C)(C)N1O | 3.3 | 0.49 | –
49 | CC1(C)CC(O)CC(C)(C)N1O [TEMPOL HYDROXYLAMINE] | – | 1.05 | –
50 | CCCCNCC1=CC(C)(C)N([O])C1(C)C | – | – | H2O2 prot (V79 [2]): 2.5; Radiation prot (V79 [1]): 3.96
51 | CC1(C)CC(O)CC(C)(C)N1[O] [TEMPOL] | 2.5 | 5.1 | –
52 | CC1(C)CC(N)C(C)(C)N1[O] (stereo not given) | 1.1 | 12.9 | –
53 | CC(=O)C1=CC(C)(C)NC1(C)C | 1.3 | 0.63 | –
54 | CC1(C)C=C(C(=O)O)C(C)(C)N1[O] | 1 | – | –
55 | CC1(C)C=C(CNC23CC4CC(CC(C4)C2)C3)C(C)(C)N1O | 2.5 | 1.8 | –
56 | COC(=O)C1=CC(C)(C)N([O])C1(C)C | – | – | H2O2 prot (V79 [2]): 1.5; Radiation prot (V79 [1]): 0.94
57 | CC1(C)C=C(CN2CCCC2)C(C)(C)N1O | – | 28.3 | –
58 | CC1(C)C=C(C(=O)NCCCN2C(=O)c3ccccc3C2=O)C(C)(C)N1O | 2.2 | 1.3 | –
59 | CN(CC1=CC(C)(C)N([O])C1(C)C)C12CC3CC(CC(C3)C1)C2 | – | – | H2O2 prot (V79 [2]): 3.3
60 | CC1(C)C=C(C[P+](c2ccccc2)(c2ccccc2)c2ccccc2)C(C)(C)N1[O] | – | – | Radiation prot (V79 [1]): 0.72
61 | CCOC1CC(C)(C)N(O)C(C)(C)C1 | 1.6 | – | –
62 | CN(C)CCCNC(=O)C1=CC(C)(C)N([O])C1(C)C | – | – | Radiation prot (V79 [1]): 15
63 | CC1(C)C=C(CC[Se]C(=N)N)C(C)(C)[NH+]1[O-] (stereo not given) | 1.3 | – | –
64 | CN1C(C)(C)C=C(C=O)C1(C)C | – | 0.6 | –
65 | CC1(C)CCCC(C)(C)N1O | 1.5 | 0.68 | –
66 | CC1(C)C=C(CN2CCCC2)C(C)(C)N1 | 1 | 0.34 | –
67 | CCCC[N+](CCCC)(CCCC)CC1=CC(C)(C)N([O])C1(C)C | – | – | H2O2 prot (V79 [2]): 1.1; Radiation prot (V79 [1]): 0.69
68 | CCCCN(CCCC)C1CC(C)(C)N([O])C(C)(C)C1 | – | – | H2O2 prot (V79 [2]): 2.9
69 | CC1(C)C=C(C=O)CC(C)(C)N1O | – | 1.5 | –

Row | Structure (SMILES) | H2O2 prot [3] | Radiation prot [4] | further results
70 | CC1(C)C=C(C(N)=O)C(C)(C)N1[O] | – | – | H2O2 prot (V79 [2]): 1; Radiation prot (V79 [1]): 10.7
71 | CN(C)CC1=CC(C)(C)NC1(C)C | – | 0.95 | –
72 | CC1(C)C=C(CN2CCCCC2)C(C)(C)N1O | – | 30 | –
73 | CC(=O)C1=CC(C)(C)N([O])C1(C)C | – | 4.8 | –
74 | CC(=O)C1=CC(C)(C)N(O)C1(C)C | 2.7 | 0.15 | –
75 | CC1(C)C=C(C(=O)NCCCN)C(C)(C)N1[O] | – | – | H2O2 prot (V79 [2]): 1.1
76 | CN(C)CC1=CC(C)(C)N([O])C1(C)C | – | – | H2O2 prot (V79 [2]): 2.1; Radiation prot (V79 [1]): 13.9
77 | CN(C)CC1=CC(C)(C)N(O)C1(C)C | – | 16 | –
78 | CC1=[N+]([O-])C(C)CC1 (stereo not given) | 1.1 | 0.91 | –
79 | CC1(C)C=C(NC(N)=O)C(C)(C)N1[O] | – | – | H2O2 prot (V79 [2]): 1.2
80 | CC1(C)C=C(CNC23CC4CC(CC(C4)C2)C3)CC(C)(C)N1O | 2.1 | – | –
81 | CC1(C)C=C(C(=O)NCCCN)C(C)(C)N1 | – | 0.52 | –
82 | CCN(CC)CC1=CC(C)(C)N(O)C1(C)C | – | 0.96 | –
83 | CC1(C)C=C(C=O)C(C)(C)N1 | 0.9 | 0.07 | –
84 | CC1(C)CC(=O)C(C)(C)N1O | 1.1 | 1 | –
85 | CC1(C)C=C(CN2CCCCC2)C(C)(C)N1 | – | 0.95 | –
86 | CC1(C)CCC=[N+]1[O-] | 0.9 | 0.93 | –
87 | CCCCN(CCCC)CC1=CC(C)(C)N([O])C1(C)C | – | – | H2O2 prot (V79 [2]): 3.2
88 | CC1=[N+]([O-])C(C)(C)CC1 | 0.8 | 1.1 | –
89 | CC1(C)C=C(C=O)CC(C)(C)N1 | – | 0.4 | –
90 | CC1(C)CC(C(=O)O)C(C)(C)N1[O] (stereo not given) | 1 | – | –
91 | CC1(C)CC(O)C(C)(C)N1[O] (stereo not given) | – | – | H2O2 prot (V79 [2]): 1.4; Radiation prot (V79 [1]): 2.9
92 | CN(CC1=CC(C)(C)N([O])C1(C)C)Cc1ccccc1 | – | – | H2O2 prot (V79 [2]): 2
